Laboratory results: paper PMC6835763, “Influence of Short Cationic Lipopeptides with Fatty Acids of Different Chain Lengths on Bacterial Biofilms Formed on Polystyrene and Hydrogel Surfaces” (Pharmaceutics, 2019)
“And” between values parts separate entries of the source, which are not always exact repeats. Identical values can stand only once. Like-named read-outs stand apart in the source and are kept apart here. Where a SMILES comes first, the peptide text is derived from it. The star is where a group is joined. Palmitoyl = CCCCCCCCCCCCCCCC(=O)*

Columns and labels:
[1] = system: Staphylococcus aureus ATCC 25923; assay type: cell-based
Procedure: (§1) The biofilms of bacteria associated with the biofilm-related infections were cultured on 96-well flat bottom PS and on CL placed in 24-well plates. The bacteria at initial inoculums of 5 × 10^8 CFU/mL in MHB II were added to the plates and incubated at 37 °C under aerobic conditions. After 24 h of incubation, all cultures were rinsed three times with PBS and fresh medium was added. Subsequently, the obtained biofilm cultures were exposed to solutions of antimicrobials applied at graded concentrations ranging from 1 to 512 μg/mL for 24 h at 37 °C. The anti-biofilm activity of antimicrobials was visualized by resazurin (final concentration per sample = 0.005%) in the same way as in the MBFIC assay. All experiments were performed in triplicate and included growth controls (positive control: bacterial suspension without antimicrobials) and sterility controls (negative controls: sterile MBH II medium).

[2] = system: Proteus mirabilis PCM 543; assay type: cell-based
Procedure: as §1

[3] = system: Pseudomonas aeruginosa ATCC 9027; assay type: cell-based
Procedure: as §1

[4] = system: Enterococcus faecalis ATCC 29212; assay type: cell-based
Procedure: as §1

[5] = system: Escherichia coli ATCC 25922; assay type: cell-based
Procedure: as §1

[6] = system: Staphylococcus epidermidis ATCC 14990; assay type: cell-based
Procedure: as §1

[7] = system: Staphylococcus aureus ATCC 25923; assay: MBFIC assay (biofilm formation inhibition, resazurin); assay type: cell-based; details: ca. 5 × 10^8 CFU/mL in MHB II, 37 °C, 18 h, resazurin, visual, triplicate; for MBFIC S. aureus, CL: contact lenses (CL, Etafilcon A hydrogel) in 24-well plates; for MBFIC S. aureus, PS: polystyrene plates (PS), 96-well
Procedure: (§2) To determine the inhibitory effect of antimicrobials on the formation of biofilm on hydrophobic surfaces, the bacterial suspensions of strains (initial inoculum of ca. 5 × 10^8 CFU/mL in MHB II medium supplemented with antimicrobials) were cultured on 96-well PS at 37 °C for 18 h under aerobic conditions. After incubation, the suspensions were aspirated, and the wells were rinsed three times with sterile phosphate buffer PBS (AppliChem, Darmstadt, Germany) in order to remove the planktonic cells. Resazurin (final concentration per sample = 0.005%) was applied as a cell viability reagent for reading the results. In contact with the living cells, the dye is metabolized by bacterial dehydrogenases, resulting in a reduction of blue resazurin to pink resorufin. All assays were performed in triplicate and included the growth controls (positive controls: bacterial suspensions without antimicrobials) and the sterility controls (negative controls: a sterile MBH medium). After 1h of incubation, a visual evaluation of results was made. […] In a preliminary study, it was established that the application of lipopeptides at a concentration found active from visual evaluation caused the reduction of bacterial metabolism to approximately 10% (or less) of the positive control once the results were evaluated with a spectrophotometer. After 1 h of incubation with the dye, absorbance was measured at 570 and 600 nm using a microplate reader (Thermo Fisher Scientific, Waltham, MA, USA). The metabolic activity of bacteria in the samples was measured according to the formula presented in the previous paper.
(§3) The MBFIC assay with CL was applied in order to access the influence of lipopeptides on the biofilm formation on hydrogel surfaces. The entire sterile CL (1-Day Acuvue Moist, containing Etafilcon A., purchased from Johnson & Johnson (Vision Care, Jacksonsville, FL, USA), were placed in 24-well PS (Orange Scientific, Braine-l’ Alleud, Belgium) and the MBFICs were determined according to the above protocol.

[8] = system: Proteus mirabilis PCM 543; assay: as above; assay type: cell-based; details: ca. 5 × 10^8 CFU/mL in MHB II, 37 °C, 18 h, visual, triplicate; for MBFIC P. mirabilis, CL: contact lenses (CL, Etafilcon A hydrogel) in 24-well plates; for MBFIC P. mirabilis, PS: polystyrene plates (PS), 96-well
Procedure: as §2, §3

[9] = system: Pseudomonas aeruginosa ATCC 9027; assay: as above; assay type: cell-based; details: ca. 5 × 10^8 CFU/mL in MHB II, 37 °C, 18 h, visual, triplicate; for MBFIC P. aeruginosa, CL: contact lenses (CL, Etafilcon A hydrogel) in 24-well plates; for MBFIC P. aeruginosa, PS: polystyrene plates (PS), 96-well
Procedure: as §2, §3

[10] = system: Enterococcus faecalis ATCC 29212; assay: as above; assay type: cell-based; details: ca. 5 × 10^8 CFU/mL in MHB II, 37 °C, 18 h, visual, triplicate; for MBFIC E. faecalis, CL: contact lenses (CL, Etafilcon A hydrogel) in 24-well plates; for MBFIC E. faecalis, PS: polystyrene plates (PS), 96-well
Procedure: as §2, §3

[11] = system: Escherichia coli ATCC 25922; assay: as above; assay type: cell-based; details: ca. 5 × 10^8 CFU/mL in MHB II, 37 °C, 18 h, visual, triplicate; for MBFIC E. coli, CL: contact lenses (CL, Etafilcon A hydrogel) in 24-well plates; for MBFIC E. coli, PS: polystyrene plates (PS), 96-well
Procedure: as §2, §3

[12] = system: Staphylococcus epidermidis ATCC 14990; assay: as above; assay type: cell-based; details: for MBFIC S. epidermidis, CL: contact lenses (CL, Etafilcon A hydrogel) in 24-well plates; for MBFIC S. epidermidis, CL / MBFIC S. epidermidis, PS: ca. 5 × 10^8 CFU/mL in MHB II, 37 °C, 18 h, resazurin, visual, triplicate; for MBFIC S. epidermidis, PS: polystyrene plates (PS), 96-well
Procedure: as §2, §3

[13] = RP-HPLC retention to evaluate the hydrophobicity of lipopeptides; assay type: physicochemical; details: chromatographic, Luna C18(2) 3.0 × 100 mm, 5.0 µm, linear 20–80% acetonitrile in water over 10 min, 0.1% formic acid, 0.5 mL/min, UV 214 nm, used to evaluate hydrophobicity
Procedure: The crude peptide was lyophilized and subsequently purified by RP-HPLC. The purifications were carried out on a Phenomenex Gemini-NX C18 column (21.20 × 100 mm, 5.0 µm particle size, and 110 Å pore size). Acetonitrile and water, both containing 0.1% of TFA, were used as the mobile phase. UV detection at 214 nm was used. The crude peptides were eluted with a linear 20–80% acetonitrile gradient in deionized water over 60 min at a flow rate of 10.0 mL/min. The purity and identity of the peptides were confirmed with LC-MS analysis. A Waters Alliance e2695 RP-HPLC system (Waters, Milford, MA, USA) with Waters 2998 PDA (Waters, Milford, MA, USA) and Acquity QDA detectors (Empower®3 software, Database Version 7.21.00.00) was used. All analyses were carried out on a Phenomenex, Luna C18(2) column (3.0 × 100 mm, 5.0 µm particle size, 100 Å pore size). The samples were analyzed with a linear 20–80% acetonitrile gradient in deionized water over 10 min at a flow rate of 0.5 mL/min with UV detection at 214 nm. Both eluents contained 0.1% (v/v) of formic acid. The pure fractions (>95%, by HPLC analysis) were collected and lyophilized. The retention time and percentage of ACN (%) at which each peptide was eluted are included in Table 1 to evaluate the hydrophobicity of lipopeptides. The identity of all compounds was confirmed using mass spectrometry (Waters Alliance e2695 system with Acquity QDA detector, Waters, Milford, MA, USA) with electrospray ionization in positive ion mode (ESI-MS). In this mode, a proton is attached to basic moieties (amine groups, guanidine groups). The theoretical mass of the peptide was calculated and then expected ions (m/z—mass to charge ratio) were compared to measured m/z. The results are presented in Table 1, and mass spectra are presented in the Supplementary Materials.

[14] = 24 h biofilm on 96-well flat bottom PS, 5 × 10^8 CFU/mL in MHB II, exposure 1–512 μg/mL for 24 h at 37 °C, resazurin, triplicate
[15] = 24 h biofilm on contact lenses (CL) in 24-well plates, 5 × 10^8 CFU/mL in MHB II, exposure 1–512 μg/mL for 24 h at 37 °C, resazurin, triplicate

(C10)2-KKKK-NH2 [Lipopeptide 9]
MBEC S. aureus, PS [1, 14]: 64 µg/mL
MBEC S. aureus, CL [1, 15]: 128 µg/mL
MBEC P. mirabilis, PS [2, 14]: >512/>512 μg/mL
MBEC P. mirabilis, CL [2, 15]: >512/>512 μg/mL
MBEC P. aeruginosa, PS [3, 14]: 512 µg/mL
MBEC P. aeruginosa, CL [3, 15]: 256 µg/mL
MBEC E. faecalis, PS [4, 14]: 32 µg/mL
MBEC E. faecalis, CL [4, 15]: 128 µg/mL
MBEC E. coli, PS [5, 14]: 64 µg/mL
MBEC E. coli, CL [5, 15]: 128 µg/mL
concentrations eliminating the EC biofilm (MBEC range) ([5]; range over PS and CL): 64 to 128 µg/mL
MBEC S. epidermidis, PS [6, 14]: 16 µg/mL
MBEC S. epidermidis, CL [6, 15]: 64 µg/mL
MBFIC S. aureus, CL [7]: 16 µg/mL
MBFIC S. aureus, PS [7]: 8 µg/mL
MBFIC P. mirabilis, CL [8]: 512/512 μg/mL
MBFIC P. mirabilis, PS [8]: 512/512 μg/mL
MBFIC P. aeruginosa, CL [9]: 64 μg/mL and 64/64 μg/mL
MBFIC P. aeruginosa, PS [9]: 64 μg/mL and 64/64 μg/mL
MBFIC E. faecalis, CL [10]: 64/64 μg/mL
MBFIC E. faecalis, PS [10]: 64/64 μg/mL
MBFIC E. coli, CL [11]: 64 µg/mL
MBFIC E. coli, PS [11]: 128 µg/mL
MBFIC S. epidermidis, CL [12]: 16 µg/mL
MBFIC S. epidermidis, PS [12]: 8 µg/mL
concentrations inhibiting formation of SE biofilm (MBFIC range) ([12]; range over PS and CL): 8 to 16 µg/mL
% ACN at which the peptide was eluted [13]: 39.6%
tR' (adjusted retention time) [13]: 3.27 min

CCCCCCCCCCCCCCCC(=O)N[C@@H](CCCCN)C(=O)N[C@@H](CCCCN)C(=O)N[C@@H](CCCCN)C(N)=O [Lipopeptide 7, C16-KKK-NH2]
MBEC S. aureus, CL ([1]; ATCC 25923, 24 h): 256 µg/mL
MBEC P. mirabilis, CL ([2]; PCM 543, 24 h): 512/>512 μg/mL
MBEC P. aeruginosa, CL ([3]; ATCC 9027, 24 h): 512/>512 μg/mL
MBEC E. faecalis, CL ([4]; ATCC 29212, 24 h): 16 µg/mL
MBEC E. coli, CL ([5]; ATCC 25922, 24 h): 128 µg/mL
concentrations eliminating the EC biofilm (MBEC range) ([5]; ATCC 25922, 24 h): 64 to 128 µg/mL
MBEC S. epidermidis, CL ([6]; ATCC 14990, 24 h): 64 µg/mL
MBFIC S. aureus, CL [7]: 32/32 μg/mL
MBFIC S. aureus, PS [7]: 32/32 μg/mL
MBFIC P. mirabilis, CL [8]: 256 µg/mL
MBFIC P. mirabilis, PS [8]: 512 µg/mL
MBFIC P. aeruginosa, CL [9]: 512/512 μg/mL
MBFIC P. aeruginosa, PS [9]: 512/512 μg/mL
MBFIC E. faecalis, CL [10]: 64/64 μg/mL
MBFIC E. faecalis, PS [10]: 64/64 μg/mL
MBFIC E. coli, CL [11]: 32 µg/mL
MBFIC E. coli, PS [11]: 64 µg/mL
MBFIC S. epidermidis, CL [12]: 32 µg/mL
MBFIC S. epidermidis, PS [12]: 8 µg/mL
% ACN at which the peptide was eluted [13]: 37.9%
tR' (adjusted retention time) [13]: 2.98 min

CCCCCCCCCCCCCCCC(=O)N[C@@H](CCCCN)C(=O)N[C@@H](CCCNC(=N)N)C(N)=O [Lipopeptide 8, C16-KR-NH2] (Palmitoyl-Lys-Arg-NH2)
MBEC S. aureus, CL ([1]; ATCC 25923, 24 h): 128 µg/mL
MBEC P. mirabilis, CL ([2]; PCM 543, 24 h): > 512 µg/mL
MBEC P. aeruginosa, CL ([3]; ATCC 9027, 24 h): 32 µg/mL
MBEC E. faecalis, CL ([4]; ATCC 29212, 24 h): 64/64 μg/mL
MBEC E. coli, CL ([5]; ATCC 25922, 24 h): 128 µg/mL
MBEC S. epidermidis, CL ([6]; ATCC 14990, 24 h): 32 µg/mL
MBFIC S. aureus, CL [7]: 16 µg/mL
MBFIC S. aureus, PS [7]: 8 µg/mL
MBFIC P. mirabilis, CL [8]: 512/512 μg/mL
MBFIC P. mirabilis, PS [8]: 512/512 μg/mL
MBFIC P. aeruginosa, CL [9]: 128 µg/mL
MBFIC P. aeruginosa, PS [9]: 512 µg/mL
MBFIC E. faecalis, CL [10]: 64/64 μg/mL
MBFIC E. faecalis, PS [10]: 64/64 μg/mL
MBFIC E. coli, CL [11]: 64 μg/mL and 64/64 μg/mL
MBFIC E. coli, PS [11]: 64 μg/mL and 64/64 μg/mL
MBFIC S. epidermidis, CL [12]: 32 µg/mL
MBFIC S. epidermidis, PS [12]: 16 µg/mL
% ACN at which the peptide was eluted [13]: 44.3%
tR' (adjusted retention time) [13]: 4.06 min
